# Test results as given in patent publication US20240360151A1 (SANOFI, priority 2023, published 2024).
# Biological target: T1, NLRP3 inflammasome (Homo sapiens, UniProt Q96P20)
# T1 construct: endogenous in cells; host or cells: THP-1 monocytic cells
# Test: IL-1β secretion assay (NLRP3 IC50) in LPS-primed, nigericin-activated THP-1 cells, HTRF
# Type: cell-based
# Conditions: monocytic THP-1 cells; LPS 10 ng/mL 3 h priming, then compound + nigericin 10 μM 2 h; relative IC50, 10 concentrations, geometric mean
# How it was run: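 IL-1β in supernatant read by HTRF after 2 h co-incubation of compound (0.1% DMSO, 10 concentrations, 1:3 series) with nigericin at 10 μM final, following 3 h LPS (10 ng/mL) priming of THP-1 monocytes at 37° C. Inhibition normalised to unactivated and no-compound controls; geometric-mean relative IC50 from 4-parameter logistic model.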
# T1 sequence (Q96P20 whole entry): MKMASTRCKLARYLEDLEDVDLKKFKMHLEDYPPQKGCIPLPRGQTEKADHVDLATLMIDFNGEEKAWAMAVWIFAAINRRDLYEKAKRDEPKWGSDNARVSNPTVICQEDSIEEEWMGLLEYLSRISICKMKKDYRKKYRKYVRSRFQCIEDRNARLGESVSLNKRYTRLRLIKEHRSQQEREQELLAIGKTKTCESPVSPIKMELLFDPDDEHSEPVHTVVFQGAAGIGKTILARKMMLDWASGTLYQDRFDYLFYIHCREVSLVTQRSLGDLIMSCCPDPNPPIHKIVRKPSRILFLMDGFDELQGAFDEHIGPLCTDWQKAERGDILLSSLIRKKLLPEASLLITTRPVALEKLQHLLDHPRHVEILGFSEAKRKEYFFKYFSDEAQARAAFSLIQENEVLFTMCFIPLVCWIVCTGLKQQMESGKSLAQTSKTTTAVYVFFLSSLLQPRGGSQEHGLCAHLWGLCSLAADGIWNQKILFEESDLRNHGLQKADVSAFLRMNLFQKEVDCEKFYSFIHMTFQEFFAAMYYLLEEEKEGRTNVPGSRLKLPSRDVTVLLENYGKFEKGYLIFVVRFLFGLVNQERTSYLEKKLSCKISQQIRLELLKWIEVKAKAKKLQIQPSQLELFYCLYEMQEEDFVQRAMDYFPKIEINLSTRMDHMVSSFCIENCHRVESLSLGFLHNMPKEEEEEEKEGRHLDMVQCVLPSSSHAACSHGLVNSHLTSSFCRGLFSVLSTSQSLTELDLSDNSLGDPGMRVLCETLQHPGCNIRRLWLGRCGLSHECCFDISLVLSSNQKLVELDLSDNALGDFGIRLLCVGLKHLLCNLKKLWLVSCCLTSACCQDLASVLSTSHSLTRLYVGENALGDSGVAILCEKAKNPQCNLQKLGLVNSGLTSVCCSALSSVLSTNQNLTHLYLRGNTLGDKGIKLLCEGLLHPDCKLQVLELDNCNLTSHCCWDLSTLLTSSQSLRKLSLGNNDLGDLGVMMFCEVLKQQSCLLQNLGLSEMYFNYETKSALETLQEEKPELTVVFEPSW
row,Compound,IC50 [nM]
1,"CCN1CC[C@H]2OCCN(c3ccc(-c4c(C)cc(C(F)(F)F)cc4O)nn3)[C@@H]2C1 [Example 344, 2-[6-[(4aR,8aR)-6-ethyl-3,4a,5,7,8,8a-hexahydro-2H-pyrido[4,3-b][1,4]oxazin-4-yl]pyridazin-3-yl]-3-methyl-5-(trifluoromethyl)phenol]",223
2,"OC[C@@H]1CN(c2cc(C(F)F)c(-c3ccc4c(c3O)CCC4)nn2)CCO1 [Example 345, 5-[4-(difluoromethyl)-6-[(2S)-2-(hydroxymethyl)morpholin-4-yl]pyridazin-3-yl]indan-4-ol]",125
3,"CN1CC[C@H]2OCCN(c3cc(C(F)F)c(-c4cccc(F)c4O)nn3)[C@H]2C1 [Example 351, 2-[6-[(4aS,8aR)-6-methyl-3,4a,5,7,8,8a-hexahydro-2H-pyrido[4,3-b][1,4]oxazin-4-yl]-4-(difluoromethyl)pyridazin-3-yl]-6-fluoro-phenol]",167
4,"Cc1cc(C)c(-c2ccc(N3CCO[C@@H]4CCN(CC(F)(F)F)C[C@@H]43)nn2)c(O)c1 [Example 355, 2-[6-[(4aS,8aR)-6-(2,2,2-trifluoroethyl)-3,4a,5,7,8,8a-hexahydro-2H-pyrido[4,3-b][1,4]oxazin-4-yl]pyridazin-3-yl]-3,5-dimethyl-phenol]",1170
5,"Cc1cc(C(F)(F)F)cc(O)c1-c1ccc(N2CCOc3c[nH]nc32)nn1 [Example 360, 2-[6-(5,6-dihydro-2H-pyrazolo[4,3-b][1,4]oxazin-7-yl)pyridazin-3-yl]-3-methyl-5-(trifluoromethyl)phenol]",420
6,"Cc1cc(C)c(-c2ccc(N3CCOc4ccncc43)nn2)c(O)c1 [Example 362, 2-[6-(2,3-dihydropyrido[4,3-b][1,4]oxazin-4-yl)pyridazin-3-yl]-3,5-dimethyl-phenol]",3540
7,"CC(=O)N1CC[C@H]2CCN(c3ccc(-c4c(C)cc(C(F)(F)F)cc4O)nn3)[C@H]2C1 [Example 369, 1-[(3aR,7aR)-1-[6-[2-hydroxy-6-methyl-4-(trifluoromethyl)phenyl]pyridazin-3-yl]-3,3a,4,5,7,7a-hexahydro-2H-pyrrolo[2,3-c]pyridin-6-yl]ethanone]",476
8,"CC(=O)N1CC[C@@H]2CCN(c3ccc(-c4c(C)cc(C(F)(F)F)cc4O)nn3)[C@@H]2C1 [Example 370, 1-[(3aS,7aS)-1-[6-[2-hydroxy-6-methyl-4-(trifluoromethyl)phenyl]pyridazin-3-yl]-3,3a,4,5,7,7a-hexahydro-2H-pyrrolo[2,3-c]pyridin-6-yl]ethanone]",1270
9,"CC(=O)N1CC[C@H]2CCN(c3ccc(-c4c(C)cc(C(F)(F)F)cc4O)nn3)[C@H]2C1 [Example 395, 1-[(3aR,7aR)-1-[6-[2-hydroxy-6-methyl-4-(trifluoromethyl)phenyl]pyridazin-3-yl]-3,3a,4,5,7,7a-hexahydro-2H-pyrrolo[2,3-c]pyridin-6-yl]ethanone]",234
10,"O=S1(=O)CCN(c2ccc(-c3c(O)cc(Cl)cc3Cl)nn2)CC1 [Example 399, 3,5-dichloro-2-[6-(1,1-dioxo-1,4-thiazinan-4-yl)pyridazin-3-yl]phenol]",564
11,"CN1CC[C@H]2OCCN(c3ccc(-c4c(O)cccc4C(F)(F)F)nn3)[C@H]2C1 [Example 402, 2-[6-[(4aS,8aR)-6-methyl-3,4a,5,7,8,8a-hexahydro-2H-pyrido[4,3-b][1,4]oxazin-4-yl]pyridazin-3-yl]-3-(trifluoromethyl)phenol]",22
12,"CCN1CC[C@H]2OCCN(c3ccc(-c4c(C)cc(C)cc4O)nn3)[C@H]2C1 [Example 404, 2-[6-[(4aS,8aR)-6-ethyl-3,4a,5,7,8,8a-hexahydro-2H-pyrido[4,3-b][1,4]oxazin-4-yl]pyridazin-3-yl]-3,5-dimethyl-phenol]",0.75
13,"CC(=O)N1CC[C@H]2OCCN(c3ccc(-c4c(C)cccc4O)nn3)[C@H]2C1 [Example 409, 1-[(4aS,8aR)-4-[6-(2-hydroxy-6-methyl-phenyl)pyridazin-3-yl]-3,4a,5,7,8,8a-hexahydro-2H-pyrido[4,3-b][1,4]oxazin-6-yl]ethanone]",638
14,"Cc1cc(C)c(-c2ccc(N3CC4CCC3CN(C)C4)nn2)c(O)c1 (stereo not drawn) [Example 410, 3,5-dimethyl-2-[6-(3-methyl-3,6-diazabicyclo[3.2.2]nonan-6-yl)pyridazin-3-yl]phenol]",2180
15,"Cc1cccc(O)c1-c1ccc(N2CCO[C@@H]3CCNC[C@@H]32)nn1 [Example 411, 2-[6-[(4aS,8aR)-2,3,4a,5,6,7,8,8a-octahydropyrido[4,3-b][1,4]oxazin-4-yl]pyridazin-3-yl]-3-methyl-phenol]",344
16,"Cc1cc(C(F)(F)F)cc(O)c1-c1ccc(N2CC3CCC2CN(C)C3)nn1 (stereo not drawn) [Example 417, 3-methyl-2-[6-(3-methyl-3,6-diazabicyclo[3.2.2]nonan-6-yl)pyridazin-3-yl]-5-(trifluoromethyl)phenol]",716
17,"CCc1cccc(O)c1-c1ccc(N2CCO[C@@H]3CCN(C(C)=O)C[C@@H]32)nn1 [Example 424, 1-[(4aS,8aR)-4-[6-(2-ethyl-6-hydroxy-phenyl)pyridazin-3-yl]-3,4a,5,7,8,8a-hexahydro-2H-pyrido[4,3-b][1,4]oxazin-6-yl]ethanone]",396

row,Compound,IC50 [nM]
1,"Cc1cc(C)c(-c2ccc(N3CCCC34CCCN(C)C4)nn2)c(O)c1 (stereo not drawn) [Example 428, 3,5-dimethyl-2-[6-(9-methyl-1,9-diazaspiro[4.5]decan-1-yl)pyridazin-3-yl]phenol]",1020
2,"CCc1cccc(O)c1-c1cc(C)c(N2CCO[C@@H]3CCN(C)C[C@@H]32)nn1 [Example 439, 2-[6-[(4aS,8aR)-6-methyl-3,4a,5,7,8,8a-hexahydro-2H-pyrido[4,3-b][1,4]oxazin-4-yl]-5-methyl-pyridazin-3-yl]-3-ethyl-phenol]",569
3,"Cc1cc(C)c(-c2ccc(N3CCC4(CN(C)CCO4)C3)nn2)c(O)c1 (stereo not drawn) [Example 440, 3,5-dimethyl-2-[6-(9-methyl-6-oxa-2,9-diazaspiro[4.5]decan-2-yl)pyridazin-3-yl]phenol]",3280
4,"Cc1cc(C)c(-c2ccc(N3CCCC4(COCCN4C)C3)nn2)c(O)c1 (stereo not drawn) [Example 441, 3,5-dimethyl-2-[6-(1-methyl-4-oxa-1,8-diazaspiro[5.5]undecan-8-yl)pyridazin-3-yl]phenol]",4670
5,"CC(=O)N1CC[C@H]2OCCN(c3cc(C(F)F)c(-c4ccc(Cl)cc4O)nn3)[C@H]2C1 [Example 442, 1-[(4aS,8aR)-4-[6-(4-chloro-2-hydroxy-phenyl)-5-(difluoromethyl)pyridazin-3-yl]-3,4a,5,7,8,8a-hexahydro-2H-pyrido[4,3-b][1,4]oxazin-6-yl]ethanone]",195
6,"Cc1cc(C)c(-c2ccc(N3CCC4(COCCN4C)C3)nn2)c(O)c1 (stereo not drawn) [Example 444, 3,5-dimethyl-2-[6-(6-methyl-9-oxa-2,6-diazaspiro[4.5]decan-2-yl)pyridazin-3-yl]phenol]",4060
7,"Cc1cc(C)c(-c2ccc(N3CC[C@]4(CN(C)CCO4)C3)nn2)c(O)c1 [Example 445, 3,5-dimethyl-2-[6-[(5S)-9-methyl-6-oxa-2,9-diazaspiro[4.5]decan-2-yl]pyridazin-3-yl]phenol]",1900
8,"Cc1cc(C)c(-c2ccc(N3CC[C@@]4(CN(C)CCO4)C3)nn2)c(O)c1 [Example 446, 3,5-dimethyl-2-[6-[(5R)-9-methyl-6-oxa-2,9-diazaspiro[4.5]decan-2-yl]pyridazin-3-yl]phenol]",815
9,"Cc1cc(C)c(-c2ccc(N3CCOCC34CCCN(C)C4)nn2)c(O)c1 (stereo not drawn) [Example 449, 3,5-dimethyl-2-[6-(8-methyl-4-oxa-1,8-diazaspiro[5.5]undecan-1-yl)pyridazin-3-yl]phenol]",4190
10,"Cc1cc(C)c(-c2ccc(N3CC[C@]4(COCCN4C)C3)nn2)c(O)c1 [Example 450, 3,5-dimethyl-2-[6-[(5R)-6-methyl-9-oxa-2,6-diazaspiro[4.5]decan-2-yl]pyridazin-3-yl]phenol]",2040
11,"Cc1cc(C)c(-c2ccc(N3CC[C@@]4(COCCN4C)C3)nn2)c(O)c1 [Example 451, 3,5-dimethyl-2-[6-[(5S)-6-methyl-9-oxa-2,6-diazaspiro[4.5]decan-2-yl]pyridazin-3-yl]phenol]",1650
12,"Cc1cc(C)c(-c2ccc(N3CCOCC34CN(C)C4)nn2)c(O)c1 [Example 455, 3,5-dimethyl-2-[6-(2-methyl-8-oxa-2,5-diazaspiro[3.5]nonan-5-yl)pyridazin-3-yl]phenol]",7150
13,"CCN1CC[C@H]2OCCN(c3cc(C(F)F)c(-c4ccc(Cl)cc4O)nn3)[C@H]2C1 [Example 456, 2-[6-[(4aS,8aR)-6-ethyl-3,4a,5,7,8,8a-hexahydro-2H-pyrido[4,3-b][1,4]oxazin-4-yl]-4-(difluoromethyl)pyridazin-3-yl]-5-chloro-phenol]",2
14,"CC(=O)N1CC[C@H]2CCN(c3cc(C)c(-c4ccc(C)cc4O)nn3)[C@H]2C1 [Example 457, 1-[(3aR,7aR)-1-[6-(2-hydroxy-4-methyl-phenyl)-5-methyl-pyridazin-3-yl]-3,3a,4,5,7,7a-hexahydro-2H-pyrrolo[2,3-c]pyridin-6-yl]ethenone]",432
15,"CCc1cc(Cl)cc(O)c1-c1ccc(N2CCO[C@@H]3CCN(C)C[C@@H]32)nn1 [Example 461, 2-[6-[(4aS,8aR)-6-methyl-3,4a,5,7,8,8a-hexahydro-2H-pyrido[4,3-b][1,4]oxazin-4-yl]pyridazin-3-yl]-5-chloro-3-ethyl-phenol]",1
16,"CC(=O)N1CCC[C@@H]2[C@H]1CCCN2c1ccc(-c2c(C)cc(C(F)(F)F)cc2O)nn1 [Example 462, 1-[(4aR,8aR)-5-[6-[2-hydroxy-6-methyl-4-(trifluoromethyl)phenyl]pyridazin-3-yl]-2,3,4,4a,6,7,8,8a-octahydro-1,5-naphthyridin-1-yl]ethanone]",251
